Source: patent US20230124862A1, “BISMUTH THIOL COMPOUNDS AND COMPOSITIONS AND METHODS OF TREATING MICROBIAL CO-INFECTIONS” (Microbion Corporation, priority 2020, published 2023)
≈ marks a conversion by molar mass, not a printed value. Where “and” joins values, the source holds several entries; their conditions need not be identical. Identical values can stand only once. Like-named read-outs stand apart in the source and are kept apart here.

Key:
[1] = system: Haemophilus influenzae; details: H. influenzae MMX 1224 (ATCC 49247), cited from earlier work
[2] = system: Haemophilus influenzae; experiment: Broth microdilution MIC, Haemophilus influenzae clinical isolates; format: cell-based
[3] = system: Gram-negative organisms (P. aeruginosa, E. coli, A. baumannii, H. influenzae); details: P. aeruginosa ATCC 27853; cited from earlier work
[4] = system: Gram-negative organisms (P. aeruginosa, E. coli, A. baumannii, H. influenzae); experiment: Broth microdilution MIC with pulmonary surfactant (Survanta); format: cell-based
[5] = system: S. aureus ATCC 29213; details: control strain ATCC 29213; cited from earlier work
[6] = system: P. aeruginosa; experiment: Checkerboard FIC/FICI assay; format: cell-based, Pseudomonas aeruginosa; details: for FICB / MICB: Amikacin in combination with BisEDT
[7] = system: Achromobacter spp.; experiment: MIC testing of CF isolates; format: cell-based; details: strain AX4, A. xylosoxidans; read-out: MIC
[8] = system: B. cepacia; experiment: MIC testing of CF isolates; format: cell-based, Burkholderia cepacia; details: Burkholderia cepacia; strain BC17; read-out: MIC
[9] = system: B. multivorans; experiment: MIC testing of CF isolates; format: cell-based, Burkholderia multivorans; details: Burkholderia multivorans; strain BC5b; read-out: MIC
[10] = system: Burkholderia cepacia complex; experiment: Checkerboard FIC/FICI assay; format: cell-based, Burkholderia spp.; details: for MICB: MIC of Amikacin (Drug B) in combination with BisEDT
[11] = system: B. cenocepacia; experiment: MIC testing of CF isolates; format: cell-based, Burkholderia cenocepacia
[12] = system: S. maltophilia; experiment: MIC testing of CF isolates; format: cell-based, Stenotrophomonas maltophilia; details: strain SM21
[13] = system: E. coli ATCC 25922; details: control strain ATCC 25922; cited from earlier work
[14] = H. influenzae MMX 1224 (ATCC 49247)
[15] = P. aeruginosa 6322, one value per panel row D-G
[16] = P. aeruginosa 6977, by checkerboard
[17] = P. aeruginosa 7745, by checkerboard

## C[C@H]1COc2c(N3CCN(C)CC3)c(F)cc3c(=O)c(C(=O)O)cn1c23 [LEV]
[1]
  CLSI Quality Control Range (MIC): (0.008-0.03)
[2]; H. influenzae MMX 0797, BLNAR
  MIC: 0.015 µg/mL (≈ 0.0415 µM)
[2]; [14]
  MIC: 0.015 µg/mL (≈ 0.0415 µM)
[2]; H. influenzae MMX 1302
  MIC: 0.015 µg/mL (≈ 0.0415 µM)
[2]; H. influenzae MMX 1304
  MIC: 0.015 µg/mL (≈ 0.0415 µM)
[2]; H. influenzae MMX 1740
  MIC: 0.015 µg/mL (≈ 0.0415 µM)
[2]; H. influenzae MMX 1741
  MIC: 0.015 µg/mL (≈ 0.0415 µM)
[2]; H. influenzae MMX 2795, BLNAR
  MIC: 0.015 µg/mL (≈ 0.0415 µM)
[2]; H. influenzae MMX 2796, BLNAR
  MIC: 0.015 µg/mL (≈ 0.0415 µM)
[2]; H. influenzae MMX 2798, BLNAR
  MIC: 0.015 µg/mL (≈ 0.0415 µM)
[2]; H. influenzae MMX 2799, BLNAR
  MIC: 0.015 µg/mL (≈ 0.0415 µM)
[2]; H. influenzae MMX 5458
  MIC: 0.015 µg/mL (≈ 0.0415 µM)
[2]; H. influenzae MMX 5461
  MIC: 0.03 µg/mL (≈ 0.083 µM)
[2]; H. influenzae MMX 5469
  MIC: 0.015 µg/mL (≈ 0.0415 µM)
[2]; H. influenzae MMX 5494
  MIC: 0.015 µg/mL (≈ 0.0415 µM)
[2]; H. influenzae MMX 5495
  MIC: 0.015 µg/mL (≈ 0.0415 µM)
[2]; H. influenzae MMX 5499
  MIC: 0.015 µg/mL (≈ 0.0415 µM)

## CC[C@H]1OC(=O)[C@H](C)[C@@H](O[C@H]2C[C@@](C)(OC)[C@@H](O)[C@H](C)O2)[C@H](C)[C@@H](O[C@@H]2O[C@H](C)C[C@H](N(C)C)[C@H]2O)[C@](C)(O)C[C@@H](C)CN(C)[C@H](C)[C@@H](O)[C@]1(C)O [AZM]
[1]; in µg/mL
  CLSI Quality Control Range (MIC): 1-4
[2]; H. influenzae MMX 0797, BLNAR
  MIC: 2 µg/mL (≈ 2.67 µM)
[2]; [14]
  MIC: 2 µg/mL (≈ 2.67 µM)
[2]; H. influenzae MMX 1302
  MIC: 2 µg/mL (≈ 2.67 µM)
[2]; H. influenzae MMX 1304
  MIC: 2 µg/mL (≈ 2.67 µM)
[2]; H. influenzae MMX 1740
  MIC: 4 µg/mL (≈ 5.34 µM)
[2]; H. influenzae MMX 1741
  MIC: 1 µg/mL (≈ 1.34 µM)
[2]; H. influenzae MMX 2795, BLNAR
  MIC: 2 µg/mL (≈ 2.67 µM)
[2]; H. influenzae MMX 2796, BLNAR
  MIC: 2 µg/mL (≈ 2.67 µM)
[2]; H. influenzae MMX 2798, BLNAR
  MIC: 0.5 µg/mL (≈ 0.668 µM)
[2]; H. influenzae MMX 2799, BLNAR
  MIC: 0.5 µg/mL (≈ 0.668 µM)
[2]; H. influenzae MMX 5458
  MIC: 1 µg/mL (≈ 1.34 µM)
[2]; H. influenzae MMX 5461
  MIC: 2 µg/mL (≈ 2.67 µM)
[2]; H. influenzae MMX 5469
  MIC: 2 µg/mL (≈ 2.67 µM)
[2]; H. influenzae MMX 5494
  MIC: 1 µg/mL (≈ 1.34 µM)
[2]; H. influenzae MMX 5495
  MIC: 0.5 µg/mL (≈ 0.668 µM)
[2]; H. influenzae MMX 5499
  MIC: 2 µg/mL (≈ 2.67 µM)

## C[C@@H](O)[C@H]1C(=O)N2C(C(=O)O)=C(SCCN=CN)C[C@H]12 [Imspenem]
[3]
  CLSI acceptable MIC QC range: 1 to 4 µg/mL
[4]; A. baumanuii CSC 0288, 0 percent Survanta
  MIC: 16 µg/mL (≈ 53.4 µM)
[4]; A. baumanuii CSC 0288, 1 percent Survanta
  MIC: 16 µg/mL (≈ 53.4 µM)
[4]; A. baumanuii CSC 0288, 2.5 percent Survanta
  MIC: 16 µg/mL (≈ 53.4 µM)
[4]; A. baumanuii CSC 0288, 5 percent Survanta
  MIC: 16 µg/mL (≈ 53.4 µM)
[4]; B. cepucia MMX9040, 0 percent Survanta
  MIC: 8 µg/mL (≈ 26.7 µM)
[4]; B. cepucia MMX9040, 1 percent Survanta
  MIC: 8 µg/mL (≈ 26.7 µM)
[4]; B. cepucia MMX9040, 2.5 percent Survanta
  MIC: 8 µg/mL (≈ 26.7 µM)
[4]; B. cepucia MMX9040, 5 percent Survanta
  MIC: 8 µg/mL (≈ 26.7 µM)
[4]; B. cepucia MMX9040, 10 percent Survanta
  MIC: 8 µg/mL (≈ 26.7 µM)
[4]; H. Influenzae ATCC 49247, 0 percent Survanta
  MIC: 0.5 µg/mL (≈ 1.67 µM)
[4]; H. Influenzae ATCC 49247, 1 percent Survanta
  MIC: 0.5 µg/mL (≈ 1.67 µM)
[4]; H. Influenzae ATCC 49247, 2.5 percent Survanta
  MIC: 0.5 µg/mL (≈ 1.67 µM)
[4]; H. Influenzae MMX 2795, 0 percent Survanta
  MIC: 1 µg/mL (≈ 3.34 µM)
[4]; P. aeruginosa ATCC 27853, 0 percent Survanta
  MIC: 2 µg/mL (≈ 6.68 µM)
[4]; P. aeruginosa ATCC 27853, 1 percent Survanta
  MIC: 2 µg/mL (≈ 6.68 µM)
[4]; P. aeruginosa ATCC 27853, 2.5 percent Survanta
  MIC: 2 µg/mL (≈ 6.68 µM)
[4]; P. aeruginosa ATCC 27853, 5 percent Survanta
  MIC: 2 µg/mL (≈ 6.68 µM)
[4]; P. aeruginosa ATCC 27853, 10 percent Survanta
  MIC: 2 µg/mL (≈ 6.68 µM)
[4]; P. aeruginosa CDC 0444, 0 percent Survanta
  MIC: >16 µg/mL
[4]; P. aeruginosa CDC 0444, 1 percent Survanta
  MIC: >16 µg/mL
[4]; P. aeruginosa CDC 0444, 2.5 percent Survanta
  MIC: >16 µg/mL
[4]; P. aeruginosa CDC 0444, 5 percent Survanta
  MIC: >16 µg/mL
[4]; P. aeruginosa CDC 0444, 10 percent Survanta
  MIC: >16 µg/mL

## NCC[C@H](O)C(=O)N[C@@H]1C[C@H](N)[C@@H](O[C@H]2O[C@H](CN)[C@@H](O)[C@H](O)[C@H]2O)[C@H](O)[C@H]1O[C@H]1O[C@H](CO)[C@@H](O)[C@H](N)[C@H]1O [Amikacin, reference compound]
[5]
  Expected MIC: goal (acceptable range): […]
[6]; [15]
  MICB: 128 µg/mL
[6]; [16]
  FICB: […]
  MICB: […]
[6]; [17]
  MICB: 4 µg/mL
[6]; Pseudomonas aeruginosa, P. aeruginosa 6977, Amikacin alone (checkerboard with BisEDT), read-out: Drug B MIC
  MIC: […]
[7]
  MIC: […]
[8]
  MIC: […]
[9]
  MIC: […]
[10]; B. cenocepacia 548, FIC of Amikacin (Drug B) in combination with BisEDT
  FICB: […]
[10]; B. cenocepacia 548
  MICB: […]
[10]; B. cenocepacia 813, FIC of Amikacin (Drug B) in combination with BisEDT
  FICB: […]
[10]; B. cenocepacia 813
  MICB: […]
[10]; B. cepacia 546, Amikacin in combination with BisEDT, by checkerboard, Table 60
  FICB: […]
[10]; B. cepacia 1793, FIC of Amikacin (Drug B) in combination with BisEDT
  FICB: […]
[10]; B. cepacia 1793
  MICB: […]
[10]; B. multivorans 1795, FIC of Amikacin (Drug B) in combination with BisEDT
  FICB: […]
[10]; B. multivorans 1795
  MICB: […]
[11]; Burkholderia cenocepacia, strain BC15, read-out: MIC
  MIC: […]
[11]; strain AU197
  MIC: […]
[12]
  MIC: […]
[13]
  Expected MIC: goal (acceptable range): […]
